How the values were obtained:
[1] = Absorption and fluorescence spectra, quantum yield, energy transfer; format: physicochemical; conditions: for φ (fluorescence quantum yield): uncertainty ± 15%; for λmax^abs: one-photon absorption; for λmax^t1: one-photon emission
Method: Absorption spectra were recorded using the Hewlett-Packard 8453 diode array spectrophotometer and fluorescence spectra were measured using the Amico-Bowman series 2 luminescence spectrometer a 1 cm standard quartz cell. The fluorescence quantum yield was determined using coumarin 307 and rhodamine B as references according to the literature method (J. N. Demas, G. A. Crosby, J. Phys. Chem. 1971, 75, 991).
(hereinafter, ‘ACCu2’), a compound of [Chemical Formula 12] (hereinafter, ‘FL’) and a compound of [Chemical Formula 13] (hereinafter, ‘IR’) in 1,4-dioxane, DMF, ethanol, EtOH/HEPES (9:1) and HEPES buffer ([HEPES]=20 mM, pH 7.0). Excitation wavelength was 420 nm. The solubility of ACCu2 in HEPES buffer ([HEPES]=20 mM, pH 7.0) as determined by the fluorescence method described in the literature (Kim, H. M.; Choo, H. J.; Jung, S. Y.; Ko, Y. G.; Park, W. H.; Jeon, S. J.; Kim, C. H.; Joo, T. H.; Cho, B. R. Chem Bio Chem 2007, 8, 553) was 8.0 μM, which was sufficient to stain cells.
To assess the origin of the spectral changes, the energy transfer efficiency (ETE) was calculated using Equation (1). The ETE was 93.4%.
In Equation (1), AIR and AIR′ are the absorbances of the IR moiety and IR, respectively, and FIR and FIR′ are the emission intensities of the IR moiety and IR, respectively, upon excitation at 373 nm.
The antenna effect in the one-photon (OP) (or TP) mode was 3.0 (or 3.1). The antenna effect was calculated by dividing the area of emission from the FL moiety upon excitation of the IR moiety at 373 nm (or 750 nm in the TP mode) by that collected from the direct excitation of FL at 461 nm (or 880 nm in the […]).

[2] = Two-photon action cross section; format: physicochemical; conditions: EtOH/HEPES (9/1 v/v, pH 7.0)
Method: Referring to FIG. 4(a), the Φδmax value of ACCu2 in EtOH/HEPES (9/1 v/v, pH 7.0) buffer was 32 GM at 880 nm, while those for FL and IR were 32 GM at 880 nm and 46 GM at 750 nm. The lower Φδmax value of ACCu2 at 750 nm than that of IR is because of decreased fluorescence resonance energy transfer (FRET) from IR to FL and it allows to obtain bright TPM images of cells and ^.tissues labeled with ACCu2.
The two-photon cross section (δ) was determined by the fe tosecond (fs) fluorescence measurement technique described in the literature (S. K. Lee, W. J. Yang, J. J. Choi, C. H. Kim, S.-J. Jeon, B. R. Cho, Org. Lett 2005, 7, 323-326.), ACCu2 was dissolved in 20 mM HEPES buffer (pH 7.0) to a concentration of 3.0×10^−6 M and then two-photon induced fluorescence intensity was measured at 740-940 nm using rhodamine 6G as a reference, whose two-photon property has been well characterized. The intensities of two-photon induced fluorescence of the reference and the sample were determined at the same excitation wavelength.
The two-photon cross section can be calculated from equation (3). δ=δr(SsΦrΦrcr)/(SrΦsΦscs) Equation (3)
wherein s and r stand for the sample, i.e., ACCu2, and the reference, respectively. S denotes the intensity of the signal collected using a CCD detector, Φ is the fluorescence quantum yield, Φ is the overall fluorescence collection efficiency of the experimental apparatus, c is the number density of molecules in solution, and δr is the two-photon cross section of the reference molecule.

Row | SMILES | φ (fluorescence quantum yield) ([1]; 1,4-Dioxane (0.164)) | φ (fluorescence quantum yield) ([1]; DMF (0.386)) | φ (fluorescence quantum yield) ([1]; EtOH (0.654)) | φ (fluorescence quantum yield) ([1]; EtOH/HEPES (9:1)) | φ (fluorescence quantum yield) ([1]; HEPES buffer 20 mM, pH 7.0) | λmax^abs ([1]; 1,4-Dioxane (0.164)) | λmax^abs ([1]; DMF (0.386)) | λmax^abs ([1]; EtOH (0.654)) | λmax^abs ([1]; EtOH/HEPES (9:1)) | λmax^abs ([1]; HEPES buffer 20 mM, pH 7.0) | λmax^t1 ([1]; 1,4-Dioxane (0.164)) | λmax^t1 ([1]; DMF (0.386)) | λmax^t1 ([1]; EtOH (0.654)) | λmax^t1 ([1]; EtOH/HEPES (9:1)) | λmax^t1 ([1]; HEPES buffer 20 mM, pH 7.0) | Φδmax (two-photon action cross section) ([2]; at 880 nm) | Φδmax (two-photon action cross section) ([2]; at 750 nm)
1 | CN(C)c1ccc2cc3cc(C(=O)NCc4ccc(C(=O)O)cn4)c(=O)oc3cc2c1 [FL] | 0.77 | 0.29 | 0.25 | 0.15 | 0.0045 | 438 nm | 454 nm | 457 nm | 461 nm | 452 nm | 536 nm | 576 nm | 582 nm | 587 nm | 590 nm | 32 GM | –
2 | COCCOCCOCCOc1ccc2c(ccc3cc(C(=O)N4CCNCC4)c(=O)oc32)c1 [IR] | 0.080 | 0.070 | 0.18 | 0.62 | 1.00 | 367 nm | 366 nm | 372 nm | 373 nm | 375 nm | 445 nm | 448 nm | 451 nm | 460 nm | 468 nm | – | 46 GM

From patent US9248202B2, “Two-photon probe for detecting copper(II) ion and quantitative estimation of copper(II) ion in human tissue using the same” (Korea University Research and Business Foundation, priority 2014, dated 2016)
